This note sets out measurements from patent US12527773B2, “Flavi-block: a pan-flavivirus inhibitor” (Baden-Württemberg Stiftung GmbH, priority 2020, dated 2026).

What is called half-life is the time in which the quantity being followed falls by half. High values mean slow decline, low ones rapid decline.

Series [1] concerns HeLa-LC5-RIC cells. The series is described as follows: Cytotoxicity in HeLa-LC5-RIC cells (Cell Titer Glo). The format is cell-based. How it is done: Cell viability was measured via the presence of ATP using the Promega Cell Titer Glo kit according to the manufacturer's instructions. Luminescence was detected using the Cytation3 by Biotek. […] (B) The same set of data as shown in FIG. 4A was plotted in a line graph. […] (D) As for FIG. 4A, Huh7.5 cells (1.0×10^4 cells/well) were seeded and incubated with C10 at the indicated concentrations for the indicated time points before measurement of viability using the Promega Cell Titer Glo kit.
It is shown that compound C10 is not toxic even a high concentrations of up to 40 μM.

Series [2] relates to RSV. The series is described as follows: RT-qPCR analysis of virus genomes, RSV. To be noted: human respiratory syncytial virus, c.t., read-out: EC50 from RT-qPCR analysis. The format is cell-based. From the text: (§1) Viral RNA was extracted using Isolate II RNA extraction kit (Bioline), and the absolute number of RNA copies determined by Taqman One Step RT-qPCR (Applied Biosystems) by extrapolation from a standard curve generated from in vitro—transcribed virus RNA.
(§2) It was decided to test the ability of C10 to inhibit the flaviviruses DENV1-4, KUNV and ZIKV, in addition to the paramyxovirus RSV, as a control.

In series [3] the test system is DENV, ZIKV and KUNV. The series is described as follows: Inhibition of flavivirus infection, summary bounds over DENV, ZIKV and KUNV. The series is classed as cell-based. How it is done: Vero cells were seeded into 24-well plates at a density of 2×10^5 cells/well and grown overnight in culture medium at 37° C. with 5% CO2 prior to infection with RSV, KUNV, ZIKV as indicated. BHK-21 cells were used for DENV1-4. The virus inoculum was removed and replaced with semisolid overlays of 0.8% aquacide II (Calbiochem) in DMEM+2% FBS, and the mixture was incubated at 37° C. with 5% CO2. After 3-5 days, the cells were fixed with neutral buffered formalin (Sigma) for 3 h at room temperature, rinsed with tap water, and stained with 1% crystal violet for 10 min. The stain was removed by rinsing the cells with tap water, and the viral plaques were counted visually. Dose-response curves were plotted from the plaque number versus the log of the concentration of the test compounds.
as §1, §2

Series [4] deals with hematopoietic stem cell formation. Description: Effect on zebrafish hematopoietic stem cell formation (in situ runx-1+c-myb). The series is classed as in vivo. To be noted: 36 hpf. On the procedure:
Zebrafish embryos were exposed 20-30 min after fertilization to differing concentrations of the compounds C10 and D1 (5 μM; 15 μM; 25 μM) or to medium containing the corresponding solvent (DMSO) concentration. Therefore, 3-5 embryos were sorted into each of three wells of a 96 well plate containing 200 μl of medium. For phenotype analysis, triplicates were imaged after 6-7 h post fertilization (hpf) at approximately shield stage, after 24 hpf and after 48 hpf. Dead +unfertilized embryos were removed. For imaging at 24 hpf +48 hpf; embryos were anesthetized using MESAB. (A) Diagramm showing the percentage of embryos at each time point either developing normal (blue color) or with the indicated phenotype. (B) representative images of embryos treated with the indicated compounds, or controls at the respective time points. (C) To additionally elucidate the influence on hematopoietic stem cell formation, approx. half of the embryos were sampled at 36 hpf and an in situ staining for runx-1+c-myb was performed. Shown are representative images of hematopoietic stem cell formation with the treatment indicated.
Embryos were exposed 20-30 min after fertilization to differing concentrations of the compounds C10 and D1 (5 μM; 15 μM; 25 μM) or to medium containing the corresponding solvent (DMSO) concentration. […]

Series [5] in a line: in vitro. To be noted: for % Remain. Mean: mouse plasma, 1 μM, 37° C. On the procedure:
Plasma stability is defined as the percentage of parent compound remaining in plasma over the time.
Incubations were carried out in 5 aliquots of 70 μL each (one for each time point), in duplicates. Test compounds (1 μM, final DMSO concentration 1%) were incubated at 37° C. with shaking at 100 rpm. Five time points over 120 minutes have been analyzed. The reactions were stopped by adding 420 μL of acetonitrile-water mixture (90:10) with subsequent plasma proteins sedimentation by centrifuging at 5500 rpm for 5 minutes. Supernatants were analyzed by the HPLC system coupled with tandem mass spectrometer. The percentage of the test compounds remaining after incubation in plasma and their half-lives (T1/2) were calculated.

Read-outs that look alike come from different tables or passages of the source.

For `CCN1/C(=C\C=C\c2sc3cc(NC(C)=O)ccc3[n+]2CC)Sc2cc(NC(C)=O)ccc21.[I-]` [C10, 6-acetamido-2-((1E,3E)-3-(6-acetamido-3-ethylbenzo[d]thiazol-2(3H)-ylidene)prop-1-en-1-yl)-3-ethylbenzo[d]thiazol-3-ium iodide], the cytotoxicity entry in series [1] is recorded as “not toxic”. Further, the EC50 in series [2] was 0.83 ± 0.97 µM; in series [3] (c.t., DENV, ZIKV and KUNV infection, read-out: EC50) it was under 0.5 µM; in series [3] (c.t., read-out: EC50, infectious virus (plaque-forming units)), under 0.1 µM; in series [3] (c.t., read-out: EC50, virus genomes by RT-qPCR), under 0.5 µM; in series [3] (p.i., DENV, ZIKV and KUNV infection, read-out: EC50), under 2 µM; in series [3] (p.i., read-out: EC50, virus genomes by RT-qPCR), under 1.7 µM. Moreover, the EC50 in series [3] (read-out: EC50, infectious virus (plaque-forming units), p.i.) was under 1.5 µM; in series [3] (read-out: EC50s for co-addition, all serotypes of DENV, ZIKV and WNV, plaque assays or qPCR), 0.01 to 0.1 µM. The “hematopoietic stem cell formation” value in series [4] is “no difference to the WT embryos”. Moreover, the “% Remain. Mean” value in series [5] (0 min) was 100%; in series [5] (20 min), 93%; in series [5] (40 min) it was 90%; in series [5] (60 min) it was 82%; in series [5] (120 min), 57%. The same molecule had a half-life at 1 μM in series [5] (mouse, plasma) of 3.68 h. Besides, the “stability in mouse plasma” value in series [5] (mouse, plasma) is reported as “good stability”.
